US5236957A, “N-phenylalkyl substituted α-amino carboxamide derivatives and process for their preparation” (Farmitalia Carlo Erba Srl, priority 1989, dated 1993)
pIC50: −log10 of the molar value. Read-outs that look alike come from different tables or passages of the source.

Experiments:
[1] = tested on: bicucculine-induced lethality in mice; assay: Antagonism of bicucculine-induced lethality in mice; type: in vivo; details: Mus musculus, po; drugs given orally 1 h before bicucculine (0.6 mg/kg, i.v.); protection of 50% of mice from lethality
Experimental: (§1) The activity on the CNS of the compounds of the invention was evaluated on the basis of pharmacological methods, such as, for example, the antagonism of convulsions and lethality induced by intravenous injection of bicucculine in mice (Antiepileptic Drug, D. M. Woodbury et al. eds., 2nd edition, Raven Press, New York, 1982), or the antagonism of convulsions induced in mice by subcutaneous injection of 3-mercaptopropionic acid (W. Loscher, Biochem. Pharmacol., 28; 1397-1407, 1979). Accordingly in following Tables 1 and 2, the doses which protect 50% of the mice (i.e. ED50) from lethality and tonic convulsions induced by bicucculine and 3-mercaptopropanoic acid, respectively, are given for a representative group of compounds according to the present invention.
Antagonism of bicucculine-induced lethality in mice.
Drugs were given orally 1 h before bicucculine (0.6 mg/kg, i.v.)

[2] = tested on: 3-mercaptopropionic acid (MPA) induced tonic convulsions in mice; assay: Antagonism of 3-mercaptopropionic acid (MPA) induced tonic convulsions in mice; type: in vivo; details: Mus musculus, po
Experimental: as §1
Antagonism of 3-mercaptopropionic acid (MPA) induced
tonic convulsions in mice; drugs were given orally
1 h before MPA (60 mg/kg s.c.)

[3] = target: T1, MAO type B (Rattus norvegicus, UniProt P19643); assay: Inhibition of MAO type B, rat liver mitochondria, 2-phenylethylamine as substrate; type: biochemical; details: rat liver mitochondria as source of MAO
T1 construct: using rat liver mitochondria as the source of MAO; from tissue; host or cells: rat liver mitochondria
T1 sequence (P19643 1-520): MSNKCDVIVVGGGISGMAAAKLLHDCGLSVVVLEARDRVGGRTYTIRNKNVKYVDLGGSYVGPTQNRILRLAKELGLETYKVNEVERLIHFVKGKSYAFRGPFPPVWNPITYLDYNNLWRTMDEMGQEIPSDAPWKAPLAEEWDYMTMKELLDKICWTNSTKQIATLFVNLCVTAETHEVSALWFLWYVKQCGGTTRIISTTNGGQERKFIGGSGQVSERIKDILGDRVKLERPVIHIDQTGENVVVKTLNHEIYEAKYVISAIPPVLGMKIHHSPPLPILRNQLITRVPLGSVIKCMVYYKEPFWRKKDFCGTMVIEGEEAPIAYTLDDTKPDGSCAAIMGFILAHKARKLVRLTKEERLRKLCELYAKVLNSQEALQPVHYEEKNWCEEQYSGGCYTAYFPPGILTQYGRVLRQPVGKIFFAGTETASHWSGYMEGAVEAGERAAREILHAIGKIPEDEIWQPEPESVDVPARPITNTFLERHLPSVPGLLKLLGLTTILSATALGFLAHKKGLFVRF

[4] = tested on: serotonin (5-HT) and 5-hydroxy-indole-3-acetic acid (5-HIAA); assay: Levels of 5-HT and 5-HIAA in frontal cortex of mice; type: in vivo; details: 200 mg/kg p.o.
[5] = drugs given orally 1 h before MPA (60 mg/kg s.c.), protection of 50% of mice from tonic convulsions, read-out: ED50

`C[C@H](NCc1ccc(OCc2cccc(F)c2)cc1)C(N)=O` [FCE 26743, (S)-2-[4-(3-fluorobenzyloxy)benzyl]aminopropionamide] gave an ED50 [1] of 29 mg/kg.

With `CNC(=O)[C@H](CO)NCc1ccc(OCc2ccccc2Cl)cc1` [FCE 26502, (S)-2-[4-(2-chlorobenzyloxy)benzyl]amino-3-hydroxy-N-methylpropionamide] the ED50 [1] was 27 mg/kg and the ED50 [2, 5] was 16 mg/kg.

In the case of `CNC(=O)[C@H](CO)NCc1ccc(OCc2ccccc2)cc1` [FCE 26358, (S)-2-(4-benzyloxybenzyl)amino-3-hydroxy-N-methylpropionamide], the ED50 [1] was 16 mg/kg and the ED50 [2, 5] was 43 mg/kg.

`C[C@@H](C(N)=O)N(C)Cc1ccc(Cc2ccccc2)cc1` [FCE 26762, (S)-2-[N-(4-benzylbenzyl)-N-methyl]aminopropionamide] gave an ED50 [1] of 54 mg/kg.

Compound `C[C@H](NCc1ccc(OCc2ccccc2)cc1)C(N)=O` [FCE 26550, (S)-2-(4-benzyloxybenzyl)aminopropionamide] has an ED50 [1] of 15 mg/kg and an ED50 [2, 5] of 13 mg/kg.

For `CNC(=O)[C@H](CO)NCc1ccc(OCc2ccccc2F)cc1` [FCE 26649], the ED50 [1] was 12 mg/kg.

With `C[C@H](NCc1ccc(Cc2ccccc2)cc1)C(N)=O` [FCE 26723, (S)-2-(4-benzylbenzyl)aminopropionamide] the ED50 [1] was 16 mg/kg.

Work on `NC(=O)CNCc1ccc(OCc2cccc(Cl)c2)cc1` [FCE 25989, 2-[4-(3-chlorobenzyloxy)benzyl]aminoacetamide] yielded a pIC50 [3] of 6.70, an ED50 [1] of 190 mg/kg and an ED50 [2, 5] of 28 mg/kg. The “increase of 5-HIAA” value [4] was 37% and the “increase of 5-HT” value [4] was 48%.

With `C[C@H](NCc1ccc(NCc2ccccc2)cc1)C(N)=O` [FCE 26749, (S)-2-(4-benzylaminobenzyl)aminopropionamide] the ED50 [1] was 9 mg/kg.

Compound `C[C@@H](NCc1ccc(OCc2cccc(Cl)c2)cc1)C(N)=O` [FCE 26312, (R)-2-[4-(3-chlorobenzyloxy)benzyl]aminopropionamide] has an ED50 [1] of 50 mg/kg and an ED50 [2, 5] of 10 mg/kg.

For `CNC(=O)[C@H](CO)NCc1ccc(OCc2cccc(F)c2)cc1` [FCE 26650, (S)-2-[4-(3-fluorobenzyloxy)benzyl]amino-3-hydroxy-N-methylpropionamide], the ED50 [1] was 25 mg/kg.

`C[C@H](NCc1ccc(OCc2ccccc2Cl)cc1)C(N)=O` [FCE 26700, (S)-2-[4-(2-chlorobenzyloxy)benzyl]aminopropionamide] was tested, and the ED50 [1] was 17 mg/kg.

Work on `CCCC(CCC)C(=O)O` [Valproate, reference compound] yielded an ED50 [1] of 401 mg/kg and an ED50 ([2]; 1 h) of 302 mg/kg.

Compound `CNC(=O)[C@H](CO)NCc1ccc(OCc2cccc(Cl)c2)cc1` [FCE 26359, (S)-2-[4-(3-chlorobenzyloxy)benzyl]amino-3-hydroxy-N-methylpropionamide] has an ED50 [2, 5] of 29 mg/kg.
